Laboratory results reported in patent US8691187B2, “Imaging agents for detecting neurological disorders” (Eli Lilly and Company, priority 2009, dated 2014).

Legend:
Aβ plaques = biological target: T1, Aβ plaques (Homo sapiens, UniProt P05067); assay: Fluorescent compound staining on human AD brain sections (β-amyloid IHC double labeling); format: binding; details: 100 uM compound; for Brain Section Staining: Ab (amyloid): qualitative rating + to ++++ or words
T1 construct: Native forms of tau (various isoforms, hyperphosphorylated) and amyloid aggregates are present in brain sections; from tissue; host or cells: human AD brain, frozen frontal lobe sections
Description: (§1) Native forms of tau (various isoforms, hyperphosphorylated) and amyloid aggregates are present in brain sections and therefore preferred for compound testing. Using the self-fluorescence of a test compound can give an indication of whether the compound binds to tau tangles/PHFs and/or amyloid plaques. This is further confirmed by immunostaining with Aβ and tau antibodies and overlaying the images. […] However, it is possible to “rate” the signal strength qualitatively and distinguish compounds that show binding to these aggregates.
(§2) In one of the embodiments of the present invention, the self-fluorescence of the compound of formula (I) is used to determine whether the compound binds to tau/amyloid in the brain sections and to give it a qualitative rating. The next step is to proceed to the autoradiography using different brain types for further evaluation and quantitation.
(§3) Tau fluorescent compounds staining on human brain sections (Double or triple labeled with tau and β-amyloid Immunohistochemistry (IHC))
(§4) Serial sections (6 μm thick) from OCT-embedded frozen blocks of front lobe were used for staining (OCT—optimal cutting temperature). After fixation and quenching of autofluorescence, tissue sections were incubated with in 100 μM of tau compound in 50% ethanol PBS for 60 min. Then sections were dipped briefly into water, rinsed in PBS, blocked with 5% normal horse serum in PBS for 1 hour at room temperature. After blocking, the tissue was incubated with tau or β-amyloid primary antibody at 4° C. overnight in a humid chamber. Next day, the sections were washed with PBS and then incubated with secondary antibody for 1 hour.

AD brain sections = assay: Fluorescent compound staining on human AD brain sections (self-fluorescence, overall binding); details: for Brain Section Staining: fluorescence: Table 1 quinolines, 100 uM compound; for binding of fluorescent compound to AD brain sections confirmed by immunostaining with tau or Aβ antibodies: figure legends, double labeling at 100 uM
Description: as §1, §2, §3, §4

tau aggregates = assay: Fluorescent compound staining on human AD brain sections (tau IHC double labeling); format: binding; details: 100 uM compound, qualitative rating + to ++++ or words
Description: as §1, §2, §3, §4

T1 sequence (P05067 672-713 limits assumed): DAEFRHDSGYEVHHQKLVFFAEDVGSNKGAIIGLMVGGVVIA

Row | Compound | Brain Section Staining: Ab (amyloid) (Aβ plaques; Table 1 quinolines) | Brain Section Staining: tau (tau aggregates; Table 1 quinolines) | further results
1 | CN(C)CCNc1cc(-c2ccccc2)nc2ccccc12 [Compound T048] | binds to Ab (amyloid) (100 uM) | – | –
2 | c1ccc2nc(-c3ccncc3)ccc2c1 [Compound T123, 2-(Pyridin-4-yl)quinoline] | – | – | Brain Section Staining: fluorescence (AD brain sections): No fluorescence is detected at 100 uM
3 | CN(C)c1ccc(-c2ccc3ccccc3n2)cn1 [Compound T125, N,N-Dimethyl-5-(quinolin-2-yl)pyridin-2-amine] | – | staining shows strong binding to tau | –
4 | COc1ccc2nc(-c3ccc(N(C)C)cc3)ccc2c1 [Compound T139, 4-(6-Methoxyquinolin-2-yl)-N,N-dimethylaniline] | binds to amyloid and Tau | binds to amyloid and Tau | –
5 | CNc1ccc(-c2ccc3cc(OCCF)ccc3n2)cc1.Cl.Cl [Compound T409] | binds to amyloid | – | –
6 | Cl.Cl.FCCNc1ccc(-c2ccc3ccccc3n2)cc1 [Compound T411, N-(2-Fluoroethyl)-4-(quinolin-2-yl)aniline dihydrochloride] | weakly binds to Ab | binds to tau | –
7 | [N-]=[N+]=NCCOCCOCCNc1ccc(-c2ccc3ccccc3n2)cc1 [Compound T412] | not to amyloid | binds to tau | –
8 | CN(C)c1ccc(/C=C/c2ccc3cc(F)ccc3n2)cc1 [Compound T429] | binds to Ab | – | –
9 | FCCOCCOCCNc1ccc(-c2ccc3ccccc3n2)cc1 [Compound T442] | binds to Tau and Ab | binds to Tau and Ab | –
10 | Nc1ccc(-c2ccc3ccccc3n2)cc1F [Compound T445, 2-Fluoro-4-(quinolin-2-yl) aniline] | – | binds to Tau | –
11 | CNc1ccc(C#Cc2nc3cc(OC)ccc3s2)cc1F [Compound T448] | – | – | Brain Section Staining: Ab (amyloid) (Aβ plaques; Table 2 acetylenes): binds to Ab
12 | Cn1ccc2cc(-c3ccc4ccccc4n3)ccc21 [Compound T453, 2-(1-Methyl-1H-indol-5-yl)quinoline] | binds to Ab | – | –
13 | FCCCNc1ccc(C#Cc2ccc3ccccc3n2)cc1 [Compound T454, N-(3-Fluoropropyl)-4-(quinolin-2-ylethynyl)aniline] | binds to Ab | – | Brain Section Staining: Ab (amyloid) (Aβ plaques; Table 2 acetylenes): binds to Ab
14 | Fc1ccc(-c2ccc3ccccc3n2)cn1 [Compound T455, 2-(6-Fluoropyridin-3-yl)quinoline] | – | – | Brain Section Staining: fluorescence (AD brain sections): No fluorescence
15 | CNc1ccc(-c2ccc3ccccc3n2)cc1F [Compound T458] | binds to amyloid and tau | binds to amyloid and tau | –
16 | FCCCNc1ccc(C#Cc2nc3ccccc3[nH]2)cc1 [Compound T465, 4-((1H-Benzo[d]imidazol-2-yl)ethynyl)-N-(3-fluoropropyl)aniline] | – | – | Brain Section Staining: Ab (amyloid) (Aβ plaques; Table 2 acetylenes): binds to tau and Ab; Brain Section Staining: tau (tau aggregates; Table 2 acetylenes): binds to tau and Ab
17 | CNc1ccc(-c2cc(F)c3ccccc3n2)cc1 [Compound T466, 4-(4-fluoroquinolin-2-yl)-N-methylaniline] | binds to tau and amyloid | binds to tau and amyloid | –
18 | COc1ccc2nc(-c3ccc(N)c(F)c3)ccc2c1 [Compound T467, 2-Fluoro-4-(6-methoxyquinolin-2-yl)aniline] | binds to tau and amyloid | binds to tau and amyloid | –
19 | CN(C)c1ccc(/C=C/c2cnc3ccccc3n2)cc1 [Compound T475] | binds to Ab mostly | – | –
20 | CNc1ccc(-c2cnc3ccccc3c2)cc1 [Compound T477, N-Methyl-4-(quinolin-3-yl)aniline] | binds to Ab mostly | – | –
21 | CNc1ccc(-c2ccc3cc(OC)ccc3n2)cc1F.Cl.Cl [Compound T483, 2-Fluoro-4-(6-methoxyquinolin-2-yl)-N-methylaniline dihydrochloride] | – | Mostly binds to Tau | –

Row | Compound | Brain Section Staining: Ab (amyloid) (Aβ plaques; Table 1 quinolines) | Brain Section Staining: tau (tau aggregates; Table 1 quinolines) | further results
22 | CN(C)c1ccc(-c2cc(F)c3ccccc3n2)cc1 [Compound T484, 4-(4-Fluoroquinolin-2-yl)-N—N-dimethylaniline] | binds to Tau and Ab | binds to Tau | –
23 | Cn1cnc2ccc(-c3cc(F)c4ccccc4n3)cc21 [Compound T485, 4-Fluoro-2-(1-methyl-1H-benzo[d]imidazol-6-yl)quinoline 2,2,2-trifluoroacetate] | weakly binds to Ab | – | –
24 | FCCn1c(C#Cc2ccc3ccccc3n2)nc2ccccc21.O=C(O)C(F)(F)F [Compound T496] | – | – | Brain Section Staining: Ab (amyloid) (Aβ plaques; Table 2 acetylenes): Weakly binds to Ab
25 | COc1ccc2nc(-c3ccc(N4CCN(CCCF)CC4)cc3)ccc2c1 [Compound T499, 2-(4-(4-(3-Fluoropropyl)piperazin-1-yl)phenyl)-6-methoxyquinoline] | – | – | binding of fluorescent compound to AD brain sections confirmed by immunostaining with tau or Aβ antibodies (AD brain sections): binding
26 | CNc1ccc(-c2cc3ccccc3cn2)cc1.Cl [Compound T501, 4-(Isoquinolin-3-yl)-N-methylaniline] | – | – | Brain Section Staining: fluorescence (AD brain sections): No fluorescence
27 | Nc1ccc(-c2ccnc3nc4ccccc4n23)cc1 [Compound T520, 4-(Benzo[4,5]imidazo[1,2-a]pyrimidin-4-yl)aniline] | – | – | binding of fluorescent compound to AD brain sections confirmed by immunostaining with tau or Aβ antibodies (AD brain sections): binding
28 | CNc1ccc(-c2ccn3c(n2)nc2ccccc23)cc1.O=C(O)C(F)(F)F.O=C(O)C(F)(F)F [Compound T522, 4-(Benzo[4,5]imidazo[1,2-a]pyrimidin-2-yl)-N-methylaniline bistrifluoracetate] | – | – | binding of fluorescent compound to AD brain sections confirmed by immunostaining with tau or Aβ antibodies (AD brain sections): total binding
29 | FCCOCCOCCNc1ccc(-c2ccc3ccccc3n2)cn1 [Compound T525, N-(2-(2-(2-Fluoroethoxy)ethoxy)ethyl)-5-(quinolin-2-yl)pyridin-2-amine] | – | – | binding of fluorescent compound to AD brain sections confirmed by immunostaining with tau or Aβ antibodies (AD brain sections): binding
30 | FCCOCCOCCn1c(C#Cc2cnc3[nH]ccc3c2)nc2ccccc21.O=C(O)C(F)(F)F [Compound T527] | – | – | binding of fluorescent compound to AD brain sections confirmed by immunostaining with tau or Aβ antibodies (AD brain sections): binding
31 | CN(C)c1ccc(-c2ccc3cc(O)ccc3n2)cc1 [Compound T531] | – | Binds to Tau | –
32 | FCCOCCOCCOc1ccc2nc(-c3ccc(N4CCOCC4)nc3)ccc2c1 [Compound T539, 4-(5-(6-(2-(2-(2-Fluoroethoxy)ethoxy)ethoxy)quinolin-2-yl)pyridin-2-yl)morpholine] | – | – | binding of fluorescent compound to AD brain sections confirmed by immunostaining with tau or Aβ antibodies (AD brain sections): binding
33 | Cn1c(C#Cc2ccc(NCCCF)cc2)nc2ccccc21 [Compound T540, N-(3-Fluoropropyl)-4-((1-methyl-1H-benzo[d]imidazol-2-yl)ethynyl)aniline] | – | – | binding of fluorescent compound to AD brain sections confirmed by immunostaining with tau or Aβ antibodies (AD brain sections): binding
34 | CNc1ccc(C#Cc2nc3ccccc3n2CCOCCOCCF)cc1.O=C(O)C(F)(F)F [Compound T541] | – | – | binding of fluorescent compound to AD brain sections confirmed by immunostaining with tau or Aβ antibodies (AD brain sections): binding
35 | FCCCNc1ccc(-c2ccn3c(n2)nc2ccccc23)cc1 [Compound T542, 4-(Benzo[4,5]imidazo[1,2-a]pyrimidin-2-yl)-N-(3-fluoropropyl)aniline] | – | – | binding of fluorescent compound to AD brain sections confirmed by immunostaining with tau or Aβ antibodies (AD brain sections): binding
36 | CN(C)c1ccc(-c2ccc(-c3nc4ccccc4n3CCF)cc2)cc1 [Compound T543, 4′-(1-(2-Fluoroethyl)-1H-benzo[d]imidazol-2-yl)-N,N-dimethyl-[1,1′-biphenyl]-4-amine] | – | – | Brain Section Staining: Aβ (Aβ plaques; Table 3 benzimidazoles, qualitative rating 1+ to 4+ / + to +++): no binding; binding of fluorescent compound to AD brain sections confirmed by immunostaining with tau or Aβ antibodies (AD brain sections): binding
37 | FCCCNc1ccc(-c2ccnc3nc4ccccc4n23)cc1 [Compound T544, 4-(Benzo[4,5]imidazo[1,2-a]pyrimidin-4-yl)-N-(3-fluoropropyl)aniline] | – | – | binding of fluorescent compound to AD brain sections confirmed by immunostaining with tau or Aβ antibodies (AD brain sections): binding
38 | FCCOCCOCCOc1ccc2nc(-c3ccc(N4CCOCC4)cc3)ccc2c1 [Compound T549, 4-(4-(6-(2-(2-(2-Fluoroethoxy)ethoxy)ethoxy)quinolin-2-yl)phenyl)morpholine] | – | Binds to Tau | –
39 | CN1CCN(c2ccc(-c3ccc4cc(OCCOCCOCCF)ccc4n3)cc2)CC1 [Compound T550, 6-(2-(2-(2-Fluoroethoxy)ethoxy)ethoxy)-2-(4-(4-methylpiperazin-1-yl)phenyl)quinoline] | – | Binds to Tau | –
40 | CN1CCN(c2ccc(-c3cc(F)c4ccccc4n3)cc2)CC1 [Compound T559] | – | – | Brain Section Staining: fluorescence (AD brain sections): No fluorescence
41 | Fc1ccc(C#Cc2ccc3scnc3c2)cn1 [T114/ W313] | – | – | Brain Section Staining: Ab (amyloid) (Aβ plaques; Table 2 acetylenes): stains amyloid and tau; Brain Section Staining: tau (tau aggregates; Table 2 acetylenes): stains amyloid and tau
42 | CNc1ccc(C#Cc2nc3ccc(O)cc3s2)cc1F [T118/ W366, 2-((3-fluoro-4-(methylamino)phenyl)ethynyl)benzo[d]thiazol-6-ol] | – | – | Brain Section Staining: Ab (amyloid) (Aβ plaques; Table 2 acetylenes): binds to Ab
